Data reported in patent publication US8168650B2, “Therapeutic uses of bicyclic ligands of sigma 2 receptor” (priority 2006, dated 2012).
Where a name gives a salt, the structure may show the parent alone. Read-outs that look alike come from different tables or passages of the source. Peptide text beside a SMILES is read from it. * marks the point of attachment. Cbz = O=C(OCc1ccccc1)*; CH2F = FC*

Experiments:
Panc-02 cells = assay: Caspase inhibitors on sigma-2 receptor ligand-induced apoptosis in Panc-02 cells; type: cell-based, mouse
Method: (§1) Tumor cells were seeded at a density of approximately 0.2×10^6 cells per well in 12-well plates in 1.0 ml culture medium. Cells were split and pre-incubated at 37° C. in humidified 5% CO2 for more than 24 hours (Panc-02) and 48 hours (CFPAC-1, AsPC-1, Panc-1) to insure uniform growth conditions. Compounds were dissolved in DMSO and added to the culture medium at the concentrations indicated. The final concentration of DMSO in the cell culture medium was less than 1%. The cells were then incubated for 24 hours at 37° C. in humidified 5% CO2. The extent of apoptosis was subsequently measured as previously reported (Guelen, L., et al., Oncogene 2004, 23: 1153-1165). Briefly, staining was performed on trypsin-EDTA treated cultures that had been fixed with 1% paraformaldehyde and 90% methanol. Cell pellets were resuspended in TUNEL reagent (APO-BRDU kit, San Diego, Calif.) or cleaved caspase-3 antibody (Cell Signaling Technology, Inc. Boston, Mass.) and incubated overnight at room temperature (TUNEL) or 4° C. (cleaved caspase-3). After washing, cells were resuspended in fluorescein antibody or 7-AAD buffer and incubated for 1 hour at room temperature. Cell-associated fluorescence was determined using a flow cytometry (FACScan, BD Biosciences) and analyzed with CellQuest software (BD Biosciences).
(§2) At the highest dose tested (10 μM), all sigma-2 receptor ligands induced an additional 10-20% of the cells to undergo apoptosis (FIG. 15A). […] The pan-caspase inhibitor (Z-VAD-fmk) and caspase-3/7 inhibitor (DEVD-CHO) prevented sigma-2 receptor ligand-induced apoptosis in panc-02 cells, while the caspase-1 inhibitor (YVAD-CHO) had no effect (FIG. 15B).

EMT-6 cells [1] = assay: Colony formation assay on Doxorubicin-treated EMT-6 cells; type: cell-based, mouse
Method: This Example illustrates colony formation assay on Doxorubicin (“Dox”)-treated EMT-6 cells in the presence or absence of 2 μM WC-II-26. The structures of the sigma ligands used in this and subsequent examples are illustrated in FIG. 5 and FIG. 6.

EMT-6 cells [2] = assay: TUNEL assay, enhancement of Dox-induced apoptosis in EMT-6 cells; type: cell-based, mouse; settings: EMT-6, Dox 30 nM alone
Method: In these experiments, a TUNEL assay was used to detect apoptotic cells with damaged DNA strands. […] Furthermore, EMT-6 cells treated with Dox at 30 nM yielded only 10% TUNEL-positive cells. However, when EMT-6 cells were treated with 2 μM WC-II-26 plus 30 nM Dox, the percentage of TUNEL-positive cells rose to 43.3%.

EMT-6 cells [3] = settings: EMT-6, 1 h pre-incubation with inhibitor (100 μM); for effect on cell death / cytotoxic effects induced by the three σ2 selective ligands: MTS assay
Method: To determine the effect of blocking the caspase-dependent apoptotic pathway on sigma ligand-induced cell killing, the caspase inhibitors, Z-VAD-FMK or Z-DEVD-FMK (Calbiochem, San Diego, Calif.) were added to the culture medium 1 hour before the sigma ligands, and the MTS assay performed as described above.

sigma-2 receptors = biological target: T1, sigma-2 receptors (Mus musculus, UniProt Q8VD00); assay: Saturation binding (Scatchard analysis) of [3H]RHM-1 in Panc-02 tumor allograft membrane homogenates
T1 construct: Membrane homogenates were prepared from ˜400 mg Panc-02 mouse tumor allografts; from tissue; host or cells: Panc-02 mouse pancreatic tumor allografts (membrane homogenates)
T1 sequence (Q8VD00 1-176): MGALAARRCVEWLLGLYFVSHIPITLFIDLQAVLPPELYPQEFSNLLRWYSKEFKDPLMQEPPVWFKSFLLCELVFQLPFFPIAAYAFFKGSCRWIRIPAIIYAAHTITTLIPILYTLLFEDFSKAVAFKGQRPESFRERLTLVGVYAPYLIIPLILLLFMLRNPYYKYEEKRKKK
Method: Membrane homogenates were prepared from ˜400 mg Panc-02 mouse tumor allografts, which were removed from tumor bearing mice and frozen on dry ice immediately and stored at −80° C. until used. Before homogenization, the tumor allografts were allowed to thaw slowly on ice. Tissue homogenization was carried out at 4° C. using a Potter-Elvehjem tissue grinder at a concentration of 1 g of tissue/ml of 50 mM Tris-HCl at pH 8.0. The crude membrane homogenate was then transferred to a 50 ml centrifuge tube and resuspended to a concentration of 200 mg of tissue/ml of 50 mM Tris-HCl. Additional homogenization was accomplished using an Ultra-Turrax T8 polython homogenizer (IKA Works, Inc, Wilmington, N.C.). The final homogenate was then centrifuged for 10 min at 1000 g, the pellet discarded and the supernatant mixed by vortexing and stored at −80° C. until used. The protein concentration of the suspension was determined (DC protein assay, Bio-Rad, Hercules, Calif.) and averaged ˜10 mg of protein/ml of stock solution. […] The concentrations of the radioligand ranged from 0.1-18 nM. […] Each filter was washed with 200 μl of ice-cold wash buffer for a total of three washes. […] The equilibrium dissociation constant (Kd) and maximum number of binding sites (BBmax) were determined by a linear regression analysis of the transformed data using the method of Scatchard.
Data from saturation radioligand binding studies was transformed to determine the Hill coefficient, nH, defined as: […]
In these experiments, direct saturation binding studies were carried out using [^3H]RHM-1 with membrane homogenates of PancO2 tumor allografts.

[4] = tested on: pancreatic cancer cell lines (Panc-02, CFPAC-1, AsPC-1, Panc-1); assay: Apoptosis in pancreas cancer cell lines (TUNEL / cleaved caspase-3, flow cytometry); type: cell-based, mouse, human; settings: all cell lines tested with the exception of CFPAC-1
Method: as §1, §2

CFPAC-1 = assay: Apoptosis in CFPAC-1 cells; type: cell-based, human; settings: CFPAC-1, highest dose tested
Method: as §1, with “Biosciences). […]” for “Biosciences).”

[5] = membrane homogenates of Panc-02 tumor allografts

COc1ccc(C)cc1NC(=O)OC1CC2CCCC(C1)N2CCCCCCNS(=O)(=O)c1cccc2c(N(C)C)cccc12 (stereo not drawn) (as salt: oxalate) [Compound 9, N-(9-(6-(5-Dimethylamino-1-naphthalenesulfonamido))hexyl)-9-azabicyclo[3.3.1]-nonan-3α-yl-N-(2-methoxy-5-methylphenyl)carbamate oxalate]
melting point: 162 to 163 °C

CC(=O)N[C@@H](CC(=O)O)C(=O)N[C@@H](CCC(=O)O)C(=O)N[C@H](C(=O)N[C@H](C=O)CC(=O)O)C(C)C [DEVD-CHO]
effect on sigma-2 receptor ligand-induced apoptosis (Panc-02 cells): prevented

COc1cccc2c1C(=O)c1c(O)c3c(c(O)c1C2=O)C[C@@](O)(C(=O)CO)C[C@@H]3O[C@H]1C[C@H](N)[C@H](O)[C@H](C)O1 [Dox, Doxorubicin, reference compound]
number of colonies formed compared to control cells (EMT-6 cells [1]; EMT-6, 10, 20, and 30 nM of Dox alone): not changed significantly | decrease in colony forming efficiency (EMT-6 cells [1]; EMT-6, Dox 40 nM alone): about 25% | TUNEL-positive cells (EMT-6 cells [2]): 10%

CC(=O)N[C@@H](Cc1ccc(O)cc1)C(=O)N[C@H](C(=O)N[C@@H](C)C(=O)N[C@H](C=O)CC(=O)O)C(C)C [YVAD-CHO]
effect on sigma-2 receptor ligand-induced apoptosis (Panc-02 cells): no effect

COC(=O)C[C@H](NC(=O)[C@H](C)NC(=O)[C@@H](NC(=O)OCc1ccccc1)C(C)C)C(=O)CF [Z-VAD-FMK] (Cbz-Val-Ala-Asp(OMe)-CH2F)
effect on DNA fragmentation after treatment with the three σ2 selective ligands (EMT-6 cells [3]): partially blocked | effect on cell death / cytotoxic effects induced by the three σ2 selective ligands (EMT-6 cells [3]): partially, but not completely, blocked | effect on cell death / cytotoxic effects induced by the three σ2 selective ligands (EMT-6 cells [3]; listed as Z-VADFMK): partially blocked | effect on sigma-2 receptor ligand-induced apoptosis (Panc-02 cells): prevented

COc1cc2c(cc1OC)CN(CCCCNC(=O)c1cc(C)ccc1OC)CC2 [[3H]RHM-1]
Bmax (maximum number of binding sites) (sigma-2 receptors; [5]): 1250 fmol/mg protein | Kd (sigma-2 receptors; [5]): 4.88 nM | Hill coefficient nH (mean) (sigma-2 receptors; saturation binding, Panc-02 tumor allografts): close to unity

CC(C)=CCN1CCC2(C)c3cc(O)ccc3CC1C2C (stereo not drawn) [pentazocine, reference compound]
toxicity to pancreas cancer cell lines [4]: minimal toxicity | increase in apoptosis (CFPAC-1): 8-10%
